The IC50 is the midpoint of a concentration-inhibition curve.

The target of this assay is GPR174-v38 (Homo sapiens, UniProt Q9BXC1). Briefly: Inhibition of PS-induced GPR174 Gs signaling (GloSensor), HEK293 stably transfected with GPR174-v38. The assay is classed as cell-based. Conditions: PS liposomes 1 μM; for IC50: GPR174-v38 (compound 59: data not shown), read-out: apparent IC50, inhibition of PS-induced GPR174 Gs signaling.

For the molecule `CCOc1ccc(C2C3=C(CCCC3=O)NC3=C2C(=O)c2ccccc23)cc1` (centres unmarked) [compound 23], the “PS-mediated GPR174 Gs signaling (FIGS. 47B-47F)” value (“PS-mediated GPR174 Gs signaling” for short) is listed as “inhibited” and the IC50 was around 150 nM.

Regarding `Cc1ccccc1Nc1nnc(-c2ccc(C)c(S(N)(=O)=O)c2)c2ccccc12` [compound 20], the “PS-mediated GPR174 Gs signaling” value is recorded as “inhibited” and the IC50 was around 3000 nM.

`O=[N+]([O-])c1cc(F)c(N2CCCCC2)cc1N1CCN(S(=O)(=O)c2ccccc2)CC1` [compound 11]: the “PS-mediated GPR174 Gs signaling” value is “inhibited” and the IC50 is around 100 nM.

Turning to `O=C(c1ccccc1)N1CCN(c2cc(N3CCCCC3)c(F)cc2[N+](=O)[O-])CC1` [compound 6], the “PS-mediated GPR174 Gs signaling” value was “inhibited” and the IC50 is around 100 nM.

Take `CCOc1ccc(C2C3=C(CCCC3=O)NC3=C2C(=O)c2ccccc23)cc1OCC` (centres unmarked) [compound 30]: the “PS-mediated GPR174 Gs signaling” value is listed as “inhibited” and the IC50 was around 1300 nM.

`S=C(NCc1ccco1)Nc1ccc(I)cc1` [compound 59]: the IC50 was around 10000 nM.

For the origin of these results see patent US20200345725A1, “Methods and Compositions for Treating Cancer” (Omeros Corporation, priority 2019, published 2020).
